{
  "source": "patent US20110296540A1",
  "about": "“ASSAY FOR SCREENING ANTIDEPRESSANTS” (priority 2008, published 2011)",
  "key": {"Creb-1 gene": {"tested_on": "Creb-1 gene", "experimental": "(§1) Tissue preparation: Animals were sacrificed by cervical dislocation. Selected brain regions were dissected and placed in tubes containing RNAlater (Ambion), incubated at 4 degrees C. overnight and stored at −80 degrees C. until processing.\n(§2) Brain regions (10-20 mg) were homogenized for 20 sec at medium speed in 1.25 ml lysis/denaturation buffer (Ambion) using an Autogizer™ (Tomtec). Total RNA was isolated from 100-300 ul aliquots of the homogenate using the RNAqueous™ 96 automated kit (Ambion) according to the manufacturer's protocol. A second DNase I digestion was incorporated after elution of the RNA from the Ambion filter plate to remove residual genomic DNA. Digestion was performed for 1 hr at room temperature using DNase I™ (Invitrogen) and the buffer supplied with the enzyme. After inactivation of the DNase with EDTA and heat, the RNA was desalted with a Multiscreen™ filter plate (Millipore) and stored at −80° C. Conversion of total RNA into first strand cDNA was accomplished with Superscript II™ enzyme (Invitrogen) followed by desalting over a Multiscreen plate. Approximately 1 ug of total RNA was used for each cDNA reaction. The yield of cDNA was determined using Quant-iT Oligreen™ reagent (Invitrogen). Prior to the Oligreen assay, total RNA carried over from the cDNA reaction was hydrolyzed with NaOH and heat, followed by neutralization with Tris buffer. This treatment eliminates any contribution of the RNA to the Oligreen signal. The unknown cDNA samples were compared to a standard curve derived using a 18mer oligonucleotide. Replica cDNA plates containing 3 ng of cDNA per well were prepared using an Evolution P3™ workstation (PerkinElmer). Each animal in a given experiment was represented by one well on each plate and each plate always contained the control and treatment groups.\n(§3) Quantitative PCR (qPCR) was carried out in 25 ul reactions using Full Velocity™ enzyme (Stratagene). Plates were run on either a Stratagene MX3000P™ or an Applied Biosystems 7900 HT instrument. The cycling parameters were set based on recommendations from the enzyme manufacturer. One gene expression profile was analyzed per PCR plate and duplicate plates were run for each gene. Two housekeeping genes, cyclophilin and GAPDH, were included in the gene list and were used to normalize the expression results obtained from the other genes of interest (see data analysis section). The sequences of the primers and probes for each gene are listed in supplemental table 1. Duplicate cycle thresholds (Ct values) were obtained for each gene/region and averaged. The values for cyclophilin and GAPDH were combined and used to normalize the expression values from the other genes by employing the delta Ct method. After converting delta Ct values to percentage, the mean and SEM of each animal group (controls and experimental) was calculated.\n(§4) Tissue preparation, RNA extraction, DNA preparation and qPCR analysis were described in the materials and methods section. Data analysis and statistics Results from data analyses were expressed as mean±SEM. Data were analyzed using StatView 5.0 software (SAS Institute, Cary, N.C.)."}, "[1]": {"tested_on": "mineralocorticoid receptor", "experimental": "as §1, §2, §3, §4"}, "[2]": {"tested_on": "proliferating neural progenitors", "test": "BrdU labelling of cell proliferation in the dentate gyrus", "type": "in vivo, mice", "experimental": "Immunohistochemistry and confocal imaging. Mice were anesthetized with ketamine/xylazine (100 and 7 mg/kg, respectively) and transcardially perfused (cold saline, followed by 4% cold paraformaldehyde in PBS). […] Immunohistochemistry was performed in the following steps: 2 h incubation in 1:1 formamide/2×SSC at 65° C., 5 min rinse in 2×SSC, 30 min incubation in 2N HCl at 37° C., and 10 min rinse in 0.1M boric acid, pH 8.5, 2 h incubation in 0.1M PBS with 0.3% Triton X-100, and 5% normal donkey serum. Sections were then incubated overnight at 4° C. in primary antibodies for doublecortin (goat; 1:500; Santa Cruz Biotechnology, Santa Cruz, Calif.), bromodeoxyuridine (BrdU; rat; 1:100; Serotec, Oxford, UK), and neuronal-specific nuclear protein (NeuN) (mouse; 1:500; Chemicon, Temecula, Calif.). Biotinylated or fluorescent secondary antibodies were used. All secondary antibodies were purchased from Jackson ImmunoResearch (West Grove, Pa.). DCX staining for Sholl analysis was done as follows: sections were rinsed in PBS, treated with 1% H2O2 in 1:1 PBS and methanol for 15 min to quench endogenous peroxidase activity (and to enhance dendritic staining), incubated in 10% normal donkey serum and 0.3% Triton X-100 for 30 min, and then incubated overnight at 4° C. in primary antibody for doublecortin. […] Stereological procedure was used to quantify labeled cells (Malberg et al., 2000 ? ). […]"}, "[3]": {"tested_on": "β-arrestin 2 knock out mice (S129/Sv×C57BL/6)", "test": "Open Field paradigm in β-arrestin 2 knock out mice and littermates", "type": "in vivo", "description": "Adult male C57BL/6Ntac mice were purchased from Taconic Farms (Germantown, N.Y., USA; Lille Skensved, Denmark). Male heterozygous β-arrestin 2+/− and heterozygous female mutant β-arrestin+/− mice (age 4-6 months, 25-30 g body weight) were bred on a mixed S129/Sv×C57BL/6 genetic background raised at the animal facility of Columbia University (New York, USA). […] Food and water were provided ad libitum. Behavioral testing occurred during the light phase between 0700 and 1900 for the OF, NSF and FST, splash test.\nFor all the studies, control mice received β-CD.\nMotor activity was quantified in four Plexiglas open field boxes 43 times 43 cm2 (MED Associates, Georgia, Vt.). Two sets of 16 pulse-modulated infrared photobeams were placed on opposite walls 2.5-cm apart to record x-y ambulatory movements. Activity chambers were computer interfaced for data sampling at 100-ms resolution. The computer defined grid lines that divided each Open Field into center and surround regions, with each of four lines being 11 cm from each wall. Dependent measures in the center were the total time and the number of entries over a 30-min period of test. The whole session was also divided in 5 periods to analyze the time spent in the center every 5 min. The overall motor activity was quantified as the total distance traveled (cm) or distance traveled in the center divided by total distance traveled."}},
  "note": "Where two headings read alike, the source gives them in different places.",
  "data": [
    {"smiles": "CNCCC(Oc1ccc(C(F)(F)F)cc1)c1ccccc1", "note": "(stereo not shown) [fluoxetine]", "values": [
      {"measurement": "Creb-1 gene expression", "setting": "Creb-1 gene; amygdala", "result": "unchanged"},
      {"measurement": "Creb-1 gene expression", "setting": "Creb-1 gene; hippocampus", "result": "unchanged"},
      {"measurement": "Creb-1 gene expression", "setting": "Creb-1 gene; hypothalamus", "result": "unchanged"},
      {"measurement": "mineralocorticoid receptor expression", "setting": "[1]; amygdala", "result": "unchanged"},
      {"measurement": "mineralocorticoid receptor expression", "setting": "[1]; hippocampus", "result": "unchanged"},
      {"measurement": "mineralocorticoid receptor expression", "setting": "[1]; hypothalamus", "result": "unchanged"},
      {"measurement": "number of BrdU cells in the granule cell layer (GCL)", "setting": "[2]; chronic (28 d) fluoxetine 18 mg/kg/d vs vehicle", "result": "increased"},
      {"measurement": "number of BrdU+ cells", "setting": "[2]; sham animals of the irradiation experiment, 28 d of fluoxetine", "result": "increase"},
      {"measurement": "total number of entries in the center (Open Field)", "setting": "[3]; wild-type animals, 4 weeks fluoxetine", "result": "increased"},
      {"measurement": "time spent in the center (Open Field)", "setting": "[3]; wild-type animals, 4 weeks fluoxetine 18 mg/kg/day", "result": "increased"},
      {"measurement": "effect of fluoxetine on time spent in the center (Open Field)", "setting": "[3]; β-arrestin 2 knock out mice", "result": "abolished"},
      {"measurement": "total ambulatory distance (Open Field)", "setting": "[3]; β-arrestin 2 knock out mice", "result": "absence of effects"},
      {"measurement": "total number of entries in the center (Open Field)", "setting": "[3]; β-arrestin 2 knock out mice", "result": "absence of effects"}
    ]}
  ]
}
